In patent US20040115483A1, “Crystal modification of a cyclic depsipeptide having improved strength” (priority 2001, published 2004):

Columns and labels:
Haemonchus Contortus = assay: Egg reduction test (eggs per gram of faeces) in experimentally infected sheep; format: in vivo; conditions: oral (gelatin capsule), 1 sheep, EPG
Procedure: Effectiveness of Forms I-IV of the Depsipeptide of the Formula (I) at Different Oral Dosages Against Haemonchus Contortus in Sheep
Sheep (Merino or Blackhead breed, 25-35 kg of body weight) were experimentally infected with 5000H contortus L3 larvae and treated with the formulated test substance at the end of the prepatency time of the parasite. The test compounds were administered orally (gelatin capsule). The anthelmintic effectiveness of the test substances was measured as a function of reduction of the number of eggs per gram of faeces. To this end, fresh faeces from the test animals were processed according to the McMaster method, modified according to Wetzel, and the number of eggs was determined. The number of eggs was determined at regular intervals before and after the treatment. The anthelmintic effectiveness was defined as follows: 3=>95%, 2=75-95%, 1=50-75% and 0=<50% reduction in eggs (cf. also G. von Samson-Himmelstjerna, A. Harder, T. Schnieder, J. Kalbe, N. Mencke (2000) In vivo activities of the new anthelmintic depsipeptide PF1022A. Parasitol. Res. 86:194-199).

Cooperia Oncophora = assay: Slaughter test (reduction of number of worms in small intestine) in experimentally infected cattle; format: in vivo; conditions: oral, 3 cattle, slaughter 10 days after treatment
Procedure: Effectiveness of Forms I and IV of the Depsipeptide of the Formula (I) at Different Oral Dosages Against Cooperia Oncophora in Cattle
Cattle (breed: Hostein Friesean, species: Bos taurus, calves or young cattle of up to about 200 kg) were experimentally infected with 15,000 C. oncophora L3 larvae. After successful infection (prepatency time about 18-21 days) the number of eggs per gram of faeces was determined 3 times within one week. The animals were then (at day 0=day of the treatment) treated orally (gelatin capsule) or subcutaneously with the formulated test substance. The anthelmintic effectiveness of the test substances was determined as a function of the reduction of the number of worms (in % of the untreated control) in the small intestine after the animals had been slaughtered (10 days after the treatment) (cf. also G. von Samson-Himmelstjerna, A. Harder, T. Schnieder, J. Kalbe, N. Mencke (2000) In vivo activities of the new anthelmintic depsipeptide PF1022A. Parasitol. Res. 86: 194-199.).
The effectiveness in the slaughter experiment is stated in % reduction in worms, compared to the untreated control.

[1] = Thermodynamic stability of the crystal forms; format: physicochemical; conditions: comparison of forms I-IV
[2] = Bioavailability of the crystal forms; format: in vivo; conditions: comparison of forms I-IV

**Q.** Which results are given for CC(C)C[C@H]1C(=O)O[C@H](Cc2ccc(N3CCOCC3)cc2)C(=O)N(C)[C@@H](CC(C)C)C(=O)O[C@H](C)C(=O)N(C)[C@@H](CC(C)C)C(=O)O[C@H](Cc2ccc(N3CCOCC3)cc2)C(=O)N(C)[C@@H](CC(C)C)C(=O)O[C@H](C)C(=O)N1C [Form III]?
**A.** Effectiveness (reduction of eggs per gram of faeces) (Haemonchus Contortus; dosage 0.1 mg/kg, listed as III): 1 (1 Sheep, EPG) (1 = effectiveness 50% to 75%); Effectiveness (reduction of eggs per gram of faeces) (Haemonchus Contortus; dosage 0.5 mg/kg, listed as III): 1 (1 Sheep, EPG) (1 = effectiveness 50% to 75%)

**Q.** With CC(C)C[C@H]1C(=O)O[C@H](Cc2ccc(N3CCOCC3)cc2)C(=O)N(C)[C@@H](CC(C)C)C(=O)O[C@H](C)C(=O)N(C)[C@@H](CC(C)C)C(=O)O[C@H](Cc2ccc(N3CCOCC3)cc2)C(=O)N(C)[C@@H](CC(C)C)C(=O)O[C@H](C)C(=O)N1C [Form II] as the compound, how does the “Effectiveness (reduction of eggs per gram of faeces)” value (Haemonchus Contortus; dosage 0.1 mg/kg, listed as II) read?
**A.** The value was 0 (1 Sheep, EPG) (0 = effectiveness ≦ 50 %).

**Q.** And the “Effectiveness (reduction of eggs per gram of faeces)” value (Haemonchus Contortus; dosage 0.5 mg/kg, listed as II)?
**A.** Its value is 0 (1 Sheep, EPG) (0 = effectiveness ≦ 50 %).

**Q.** Which “Effectiveness (reduction of eggs per gram of faeces)” value (Haemonchus Contortus; dosage 0.1 mg/kg, listed as IV) does the source give for CC(C)C[C@H]1C(=O)O[C@H](Cc2ccc(N3CCOCC3)cc2)C(=O)N(C)[C@@H](CC(C)C)C(=O)O[C@H](C)C(=O)N(C)[C@@H](CC(C)C)C(=O)O[C@H](Cc2ccc(N3CCOCC3)cc2)C(=O)N(C)[C@@H](CC(C)C)C(=O)O[C@H](C)C(=O)N1C [Form IV] here?
**A.** The value was 0 (1 Sheep, EPG) (0 = effectiveness ≦ 50 %).

**Q.** And the “Effectiveness (reduction of eggs per gram of faeces)” value (Haemonchus Contortus; dosage 0.5 mg/kg, listed as IV)?
**A.** Its value is 0 (1 Sheep, EPG) (0 = effectiveness ≦ 50 %).

**Q.** What about the “Effectiveness (reduction of eggs per gram of faeces)” value (Haemonchus Contortus; dosage 1.0 mg/kg) of the same compound?
**A.** The value was 3 (1 Sheep, EPG) (3 = effectiveness > 95%).

**Q.** What about the “Effectiveness (% reduction in worms, compared to the untreated control)” value (Cooperia Oncophora; dosage 1.0 mg/kg, listed as IV) of the same compound?
**A.** Its value is 43.09% (3 cattle, slaughter test).

**Q.** And the “Effectiveness (% reduction in worms, compared to the untreated control)” value (Cooperia Oncophora; dosage 2.0 mg/kg)?
**A.** Its value is 99.15% (3 cattle, slaughter test).

**Q.** And the “Thermodynamic stability (rank among the four forms)” value ([1]; listed as form IV)?
**A.** Its value is “thermodynamically fourth most stable form”.

**Q.** With CC(C)C[C@H]1C(=O)O[C@H](Cc2ccc(N3CCOCC3)cc2)C(=O)N(C)[C@@H](CC(C)C)C(=O)O[C@H](C)C(=O)N(C)[C@@H](CC(C)C)C(=O)O[C@H](Cc2ccc(N3CCOCC3)cc2)C(=O)N(C)[C@@H](CC(C)C)C(=O)O[C@H](C)C(=O)N1C [Form I] as the compound, how does the “Effectiveness (reduction of eggs per gram of faeces)” value (Haemonchus Contortus; dosage 0.1 mg/kg, listed as I) read?
**A.** Its value is 3 (1 Sheep, EPG) (3 = effectiveness > 95%).

**Q.** And the “Effectiveness (reduction of eggs per gram of faeces)” value (Haemonchus Contortus; dosage 0.5 mg/kg, listed as I)?
**A.** The value was 3 (1 Sheep, EPG) (3 = effectiveness > 95%).

**Q.** What about the “Effectiveness (% reduction in worms, compared to the untreated control)” value (Cooperia Oncophora; dosage 1.0 mg/kg, listed as I) of the same compound?
**A.** The value was 93.81% (3 cattle, slaughter test).

**Q.** And the “Thermodynamic stability (rank among the four forms)” value ([1]; listed as form I)?
**A.** Its value is “thermodynamically most stable form”.

**Q.** What about the “Bioavailability (rank among the forms)” value [2] of the same compound?
**A.** The value was “greatest bioavailability”.
